According to patent US9090652B2, “Bile acid derivatives as FXR ligands for the prevention or treatment of FXR-mediated diseases or conditions” (Intercept Pharmaceuticals, Inc., priority 2006, dated 2015):
≈ marks a conversion by molar mass, not a printed value. Entries after “also recorded” stand apart in the source; their conditions may differ. Structures can show the parent of a compound that is named as a salt. Where two headings read alike, the source gives them in different places. Marks after values point to notes of the source that are not given here. One block for each compound: values may come before it.

What was measured:
[1] = Critical micellar concentration by surface tension (maximum bubble-pressure); assay type: physicochemical; conditions: for CMC NaCl 0.15M: in NaCl 0.15 M; for CMC H2O: in water
Procedure: This value was determined by surface tension measurements using a maximum bubble-pressure method. The tensiometer was a Sensadyne 6000 (Chem-Dyne Research Corp., Milwaukee, Wis.) equipped with two glass probes of 0.5 and 4.0 mm diameters connected to a source of nitrogen. The bubble frequency was 1 bubble/second in distilled water at 26° C. (P=2.7 atm) and the calibration was made with double-distilled water and methanol. The surface tension of BA sodium salts solutions both in water and in NaCl 0.15 M was measured at various concentrations range, 0.2-75 mM and 0.3-100 mM respectively. The surface tension values were plotted against the logarithm of the bile salt concentration; the regression lines corresponding to the two parts of the curve (monomeric and micellar phases) were calculated using the method of least squares, and the intersection of the lines was taken as the CMC value.

[2] = tested on: Intestinal bacteria (human stools cultures); assay: Metabolic stability in human stools culture (7α-dehydroxylation); assay type: in vitro ADME
bovine serum albumin = target: T1, bovine serum albumin (Bos taurus, UniProt P02769); assay: Albumin binding by equilibrium dialysis; assay type: in vitro ADME; conditions: 100 μM BA in 5% bovine serum albumin-saline, 25° C.
T1 construct: 5% bovine serum albumin-saline solution

Critical micellar pH = assay type: physicochemical; conditions: CMpH=pKa+log CMC/WS
From the text: This value can be experimentally determined by evaluating the pH at which a given BA starts to precipitate from a micellar solution. It can be calculated from the CMC Water solubility of the protonated species and pKa using the formula: CMpH=pKa+log CMC/WS.

[3] = 1-Octanol/water partition coefficient, shake-flask; conditions: pH 8, 0.1 mM bile salt
[4] = Water solubility of protonated bile acids; conditions: 0.1 M HCl, pH 1, simulated gastric fluid, thermodynamic from solid
ANIT-induced cholestasis [5] = conditions: previous unpublished studies by Fiorucci et al.; cited from earlier work
[6] = Hepatic metabolism and biliary secretion in bile fistula rat after iv infusion; assay type: in vivo; conditions: for Main form / hepatic metabolite secreted in bile: at the administered dose
Procedure: The BA were administered by infusion to bile fistula rat and bile collected at 15 min intervals for 7 hours. The bile flow was measured and bile analyzed using HPLC-ES-MS-MS for the identification of the rate of biliary secretion and to evaluate the major hepatic metabolites.
Bile acids and their metabolites were determined by a liquid chromatography-tandem mass spectrometry (HPLC-MS/MS) method using electrospray (ESI) source in negative ionization mode. Rat bile samples were brought to room temperature and diluted 1:100 v/v-1:1000 v/v with 15 mM ammonium acetate buffer (pH=5). Then, 10 μL were injected into the chromatographic column. Liquid chromatography was performed using a Waters Alliance 2695 separation module coupled with autosampler. Bile acids were analyzed using a Synergi Hydro-RP C18 column (150×2.0 mm i.d., 4 μm particle size), protected by a SecurityGuard ODS 4×2.0 mm i.d. precolumn, both supplied from Phenomenex. Bile acids were separated in elution gradient using 15 mM ammonium acetate buffer (pH=5.00) as mobile phase A and acetonitrile as mobile phase B. Mobile phase B was increased from 30% to 64% in 12 min, then to 70% in 8 min, and finally brought to 100% in 10 min and held constant for 1 min. […] The column effluent was analysed by ESI-MS/MS using a Quattro-LC (Micromass) triple quadruple mass spectrometer operating in Multiple Reaction Monitoring (MRM) acquisition mode. MassLynx software version 4.0 was used for data acquisition and processing.

[7] = tested on: pancreatic esterases (pancreatin); assay: Metabolic stability in simulated duodenal/pancreatic fluid (USP); assay type: in vitro ADME, porcine
[8] = values from literature, cited from earlier work; for CMC NaCl 0.15M: in NaCl 0.15 M; for CMC H2O: in water
[9] = value from literature; cited from earlier work
[10] = pH 1
[11] = pH 8
ANIT-induced cholestasis [12] = assay: ANIT-induced cholestasis in rat; assay type: in vivo, Wistar rats; conditions: ANIT treated rats, ammonium salt
Procedure: Wistar Rats studies were approved by the Animal Study Committee of the University of Perugia. Male Wistar rats (200-250 g) were obtained from Charles River Breeding Laboratories (Portage, Mich.) and maintained on standard laboratory rat chow on a 12-h light/dark cycle. […] Control rats (N=4) were administered vehicle (physiologic solution I.P.). At the end of the study, rats were sacrificed under anaesthesia with sodium pentobarbital (50 mg/kg i.p.) and terminally bled via cardiac puncture; the liver was removed and weighted for examination and blood samples were taken. Rat genes expression was evaluated by quantitative real-time polymerase chain reaction (RT-PCR) as previously described herein.

[13] = tested on: FXR related genes in liver; assay: FXR target gene expression in liver of intact mice (Real-Time PCR); assay type: in vivo, Balb/c mice; conditions: 4 days
FXR = target: T2, FXR (Homo sapiens, UniProt Q96RI1); assay: Luciferase transactivation assay in transfected HepG2 cells; assay type: cell-based; conditions: ammonium salt
T2 construct: expressed in transfected cells; host or cells: HepG2
T2 sequence (Q96RI1 1-486): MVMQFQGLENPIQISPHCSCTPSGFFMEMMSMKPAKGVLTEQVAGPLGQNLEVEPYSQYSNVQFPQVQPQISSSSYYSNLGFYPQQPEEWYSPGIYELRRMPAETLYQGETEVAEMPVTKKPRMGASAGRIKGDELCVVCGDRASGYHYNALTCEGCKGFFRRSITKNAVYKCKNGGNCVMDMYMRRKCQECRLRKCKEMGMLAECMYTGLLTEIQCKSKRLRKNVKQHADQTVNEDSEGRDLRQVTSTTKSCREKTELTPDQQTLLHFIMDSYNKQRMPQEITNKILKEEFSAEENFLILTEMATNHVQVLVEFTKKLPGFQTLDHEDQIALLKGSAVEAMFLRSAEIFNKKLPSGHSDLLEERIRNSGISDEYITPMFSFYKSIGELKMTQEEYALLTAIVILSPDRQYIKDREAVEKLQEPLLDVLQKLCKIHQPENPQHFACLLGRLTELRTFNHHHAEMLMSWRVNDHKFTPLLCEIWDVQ
T2 sequence (P19793 1-462 partner): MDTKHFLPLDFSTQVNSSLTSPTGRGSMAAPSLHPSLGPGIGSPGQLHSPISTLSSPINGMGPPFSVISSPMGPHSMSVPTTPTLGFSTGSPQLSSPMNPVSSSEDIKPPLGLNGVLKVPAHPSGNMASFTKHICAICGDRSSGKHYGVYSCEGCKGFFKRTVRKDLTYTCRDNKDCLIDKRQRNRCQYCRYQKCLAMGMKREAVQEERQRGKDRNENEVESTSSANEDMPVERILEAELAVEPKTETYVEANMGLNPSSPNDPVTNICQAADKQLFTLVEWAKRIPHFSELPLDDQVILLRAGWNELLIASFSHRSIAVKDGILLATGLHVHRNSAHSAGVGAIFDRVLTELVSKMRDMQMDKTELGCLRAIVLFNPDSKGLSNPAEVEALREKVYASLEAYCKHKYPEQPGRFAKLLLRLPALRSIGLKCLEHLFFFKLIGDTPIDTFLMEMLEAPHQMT

[14] = 5 mg/kg intraperitoneal, ammonium salt

T1 sequence (P02769 25-607): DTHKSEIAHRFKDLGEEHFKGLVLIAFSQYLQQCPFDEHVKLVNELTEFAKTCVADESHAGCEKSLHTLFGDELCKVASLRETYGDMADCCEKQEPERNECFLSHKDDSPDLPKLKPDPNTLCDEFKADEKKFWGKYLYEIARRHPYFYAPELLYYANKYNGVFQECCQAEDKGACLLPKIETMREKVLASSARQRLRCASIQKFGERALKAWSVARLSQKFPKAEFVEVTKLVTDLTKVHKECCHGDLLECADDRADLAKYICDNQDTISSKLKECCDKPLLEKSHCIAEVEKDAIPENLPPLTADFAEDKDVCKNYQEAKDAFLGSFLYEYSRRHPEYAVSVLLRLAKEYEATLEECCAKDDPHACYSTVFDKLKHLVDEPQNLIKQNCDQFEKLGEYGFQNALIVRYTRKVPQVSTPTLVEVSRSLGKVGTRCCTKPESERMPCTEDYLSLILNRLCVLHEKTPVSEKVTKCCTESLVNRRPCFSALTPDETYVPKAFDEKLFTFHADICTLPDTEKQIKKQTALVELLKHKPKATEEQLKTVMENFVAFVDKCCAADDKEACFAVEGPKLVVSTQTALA

ST50: Surface Tension of 50 mM aqueous solution [1]: 48.5 Dyne/cm
STCMC: Surface Tension at CMC in water [1]: 55.6 Dyne/cm
CMC NaCl 0.15M [1]: 3.0 mM
CMC H2O [1]: 7.5 mM
Half-life time ([2]; human stool cultures): one
Metabolism (7-dehydroxylation to lithocholic acid) ([2]; human stool cultures, after 8 hours of incubation): almost completely metabolized
% Binding (albumin) (bovine serum albumin): 93%
CMpH (critical micellar pH) (Critical micellar pH): 7.6
LogPA− (1-octanol-water partition coefficient, ionized species) [3]: 2.2
Structure (SMILES): C[C@H](CCC(=O)O)[C@H]1CC[C@H]2[C@@H]3[C@H](O)C[C@@H]4C[C@H](O)CC[C@]4(C)[C@H]3CC[C@]12C [CDCA, chenodeoxycholic acid]

ST50: Surface Tension of 50 mM aqueous solution [1]: 43.2 Dyne/cm
STCMC: Surface Tension at CMC in water [1]: 48.8 Dyne/cm
CMC NaCl 0.15M [1]: 2.9 mM
Concentration at which a gel phase forms ([1]; in the presence of Na+ 0.15 M): > 60000 µM
CMC H2O [1]: 4.5 mM
Stability in human stool cultures [2]: very stable
% Binding (albumin) (bovine serum albumin): 96%
CMpH (critical micellar pH) (Critical micellar pH): 7.6
CMpH (critical micellar pH) (Critical micellar pH; listed as UPF 747): 7.7
solubility at 1 week [4]: 9 µM (≈ 3.79 µg/mL)
Main form / hepatic metabolite secreted in bile [6]: taurine conjugate
LogPA− (1-octanol-water partition coefficient, ionized species) [3]: 2.5
Structure (SMILES): CC[C@H]1[C@@H](O)[C@@H]2[C@H](CC[C@]3(C)[C@@H]([C@H](C)CCC(=O)O)CC[C@@H]23)[C@@]2(C)CC[C@@H](O)C[C@@H]12 [INT-747, 3α,7α-dihydroxy-6α-ethyl-5β-cholan-24-oic acid]
Reduction of liver injury in ANIT model (ANIT-induced cholestasis [5]): not effective

LogPA− (1-octanol-water partition coefficient, ionized species) [3]: 0.9
Structure (SMILES): C[C@H](CCC(=O)NCCS(=O)(=O)O)[C@H]1CC[C@H]2[C@@H]3[C@H](O)C[C@@H]4C[C@H](O)CC[C@]4(C)[C@H]3CC[C@]12C [TCDCA]
CMC NaCl 0.15M [8]: 3.0* mM
CMC H2O [8]: 7.0* mM

% Binding (albumin) (bovine serum albumin): 67%
Structure (SMILES): C[C@H](CCC(=O)NCCS(=O)(=O)O)[C@H]1CC[C@H]2[C@@H]3[C@@H](O)C[C@@H]4C[C@H](O)CC[C@]4(C)[C@H]3CC[C@]12C [TUDCA]
LogPA− (1-octanol-water partition coefficient, ionized species) [9]: 1.0*
CMC NaCl 0.15M [8]: 2.2* mM
CMC H2O [8]: 8.0* mM

Second part, the compound before the results:

Structure (SMILES): CC[C@H]1[C@@H](O)C2C3CCC(C(C)CCOS(=O)(=O)[O-])[C@@]3(C)CCC2[C@@]2(C)CC[C@@H](O)C[C@@H]12.[Na+] (stereo partly drawn) [INT-1103, 3α,7α,23-trihydroxy-6α-ethyl-24-nor-5β-cholan-23-sulphate sodium salt]
ST50: Surface Tension of 50 mM aqueous solution [1]: 43.3 Dyne/cm
STCMC: Surface Tension at CMC in water [1]: 47.9 Dyne/cm
CMC NaCl 0.15M [1]: 1.3 mM
CMC H2O [1]: 3.9 mM
Stability in human stool cultures [2]: very stable
Stability in simulated pancreatic fluid ([7]; 50 μM, 37° C., up to 240 min): very stable
Hydrolysis of ester bond (sulphate) by pancreatic esterases ([7]; simulated pancreatic fluid): not hydrolyzed
% Binding (albumin) (bovine serum albumin): 85%
Main form / hepatic metabolite secreted in bile [6]: 3-glucoronide
Amount of administered dose secreted into bile ([6]; iv infusion 3 umol/Kg/min, bile collected 7 hours): 30-40%
LogPA− (1-octanol-water partition coefficient, ionized species) [3]: 2.0

Structure (SMILES): C[C@H](CCC(=O)O)[C@H]1CC[C@H]2[C@@H]3[C@@H](O)C[C@@H]4C[C@H](O)CC[C@]4(C)[C@H]3CC[C@]12C [UDCA]
ST50: Surface Tension of 50 mM aqueous solution [1]: 50.4 Dyne/cm
STCMC: Surface Tension at CMC in water [1]: 63.0 Dyne/cm
CMC NaCl 0.15M [1]: 6.0 mM
CMC H2O [1]: 26 mM
% Binding (albumin) (bovine serum albumin): 94%
CMpH (critical micellar pH) (Critical micellar pH): 8.4
Water Solubility [10]: 7.5 µM
LogPA− (1-octanol-water partition coefficient, ionized species) [11]: 2.2

Structure (SMILES): CC[C@H]1[C@@H](O)C2C3CCC(C(C)CCOS(=O)(=O)O)[C@@]3(C)CCC2[C@@]2(C)CC[C@@H](O)C[C@@H]12 (stereo partly drawn) [UPF-987, 3α,7α,23-trihydroxy-6α-ethyl-24-nor-5β-cholan-23-sulphate triethyl ammonium salt]
Liver injury / cholestasis (plasma AST, γGT, alkaline phosphatase, cholesterol) (ANIT-induced cholestasis [12]; UPF-987 5 and 3 mg/kg daily): attenuates liver injury; also recorded: reduces ANIT
Liver expression of NTCP, CYP7A1 and BSEP (ANIT-induced cholestasis [12]): modulates liver
Liver BSEP expression [13, 14]: potent induction; also recorded: induces liver
Liver SHP expression [13, 14]: potent induction; also recorded: induces liver
Downregulation of liver Cyp7a1 ([13]; 5 mg/kg): 60-70%
Liver FAS mRNA expression ([13]; 5 mg/kg, ammonium salt): reduced
inhibition at 5 mg/kg ([13]; Mus musculus, 96 h, read-out: Inhibition of liver SREBP-1c): 90%
Transactivation of FXR (FXR): transactivates FXR
